Literature values, collected in patent US20050282937A1, “Electrochemical compatibilizer and hydrophobic wetting agent for fiber reinforced vinyl esters and related thermosets” (priority 2004, published 2005).
In brackets after ≈: the same amount, converted by molar mass. Where two headings read alike, the source gives them in different places.

What was measured:
[1] = system: Actinomyces viscosus
[2] = system: Actinomyces israeli; conditions: Oral Bacteria, laboratory strain NCTC8047
[3] = system: Actinomyces naeslundi; conditions: Oral Bacteria
[4] = system: Actinomyces odontolyticus
[5] = system: Streptococcus mitor; conditions: Oral Bacteria
[6] = system: Streptococcus mutans; conditions: Oral Bacteria, laboratory strain 6715
[7] = system: Steptococcus sobrinus; conditions: Oral Bacteria, laboratory strain OMZ176
[8] = system: Steptococcus sanguis; conditions: Oral Bacteria, laboratory strain 34
[9] = system: Porphyromonas gingivalis; conditions: Oral Bacteria, laboratory strain OMZ309
[10] = system: Actinobacillus actinomycesemcomitans; conditions: Oral Bacteria, laboratory strain Y4
[11] = system: Bacteroides gingivalis; conditions: Oral Bacteria, laboratory strain 381
[12] = system: Bacteroides intermedius; conditions: Oral Bacteria
[13] = system: Fusobacterium nucleatum
[14] = system: Veillonella parvula
[15] = system: C. ochracea; conditions: Oral Bacteria, laboratory strain NCTC11654
[16] = system: Peptococcus asacchrolyticus; conditions: Oral Bacteria, laboratory strain NCTC
[17] = system: Lactobacilli; conditions: Oral Bacteria, strain not given
[18] = system: Actinomyces actinomycetemcomitans; conditions: Fresh isolate from human plaque, Colgate-Palmolive data
[19] = system: Capnocytophaga spp; conditions: Fresh isolate from human plaque, Colgate-Palmolive data
[20] = system: P. anaerobius; conditions: Fresh isolate from human plaque, Colgate-Palmolive data
[21] = system: Peptostreptococcus micros; conditions: Fresh isolate from human plaque, Colgate-Palmolive data, strain 1422
[22] = system: P. acnes; conditions: Fresh isolate from human plaque, Colgate-Palmolive data, strain 1305
[23] = system: S. milleri; conditions: Fresh isolate from human plaque, Colgate-Palmolive data
[24] = system: S. mitior; conditions: Fresh isolate from human plaque, Colgate-Palmolive data
[25] = system: W. recta; conditions: Fresh isolate from human plaque, Colgate-Palmolive data, strain not given
[26] = system: Staphlococcus aureus; conditions: Bacteria associated with polymeric medical devices
[27] = system: Staphlococcus epidermidis; conditions: Bacteria associated with polymeric medical devices, strain ATCC12228
[28] = system: Staphlococcus hyicus; conditions: Bacteria associated with polymeric medical devices, strain ATCC27844
[29] = system: Staphlococcus hominus; conditions: Bacteria associated with polymeric medical devices, strain ATCC27844
[30] = system: Staphlococcus saprohyticus; conditions: Bacteria associated with polymeric medical devices, strain NCTC7292
[31] = system: Escherichia coli; conditions: Bacteria associated with polymeric medical devices
[32] = system: Corynebacterium (Propionibacterium) acnes; conditions: Bacteria associated with polymeric medical devices, strain ATCC6919
[33] = system: Pseudomonas aeruginosa; conditions: Bacteria associated with polymeric medical devices
[34] = system: Listeria monocytogenes; conditions: Bacteria associated with polymeric medical devices, strain ATCC15313
[35] = system: Salmonella enteritidis; conditions: Bacteria associated with polymeric medical devices, strain A
[36] = system: Candida albicans; conditions: Yeast
[37] = over a 24-hour period, thermoset dental compound containing 1.0 wt % additive
[38] = system: Laboratory rats; conditions: ingestion
[39] = system: Streptococcus mutans; conditions: dental composite, 1.0 wt % concentration, twenty four-hour period
[40] = system: Staphylococcus aureus; conditions: catheters of ethylvinyl acetate and polypropylene, up to 2.0 wt %, rabbits
[41] = system: Staphylococcus epidermidis; conditions: catheters of ethylvinyl acetate and polypropylene, up to 2.0 wt %, rabbits
[42] = system: Escherichia coli; conditions: catheters of ethylvinyl acetate and polypropylene, up to 2.0 wt %, rabbits
[43] = catheters of ethylvinyl acetate and polypropylene, up to 2.0 wt %

Oc1cc(Cl)ccc1Oc1ccc(Cl)cc1Cl [Triclosan]
Minimum inhibitory Triclosan concentration ([1]; Fresh isolate from human plaque, Colgate-Palmolive data, strain 1218): 0.8 µg/mL
Minimum inhibitory Triclosan concentration ([1]; Oral Bacteria, laboratory strain NCTC10951): 0.8 µg/mL
Minimum inhibitory Triclosan concentration ([1]; Oral Bacteria, laboratory strain T14V): 5.0 µg/mL
Minimum inhibitory Triclosan concentration [2]: 1.0 µg/mL
Minimum inhibitory Triclosan concentration ([3]; laboratory strain 12104): 1.0 µg/mL
Minimum inhibitory Triclosan concentration ([3]; laboratory strain A): 1.0 µg/mL
Minimum inhibitory Triclosan concentration ([4]; Fresh isolate from human plaque, Colgate-Palmolive data, strain 1041): 0.8 µg/mL
Minimum inhibitory Triclosan concentration ([4]; Fresh isolate from human plaque, Colgate-Palmolive data, strain 1431): 0.8 µg/mL
Minimum inhibitory Triclosan concentration ([4]; Oral Bacteria, laboratory strain NCTC9935): 0.8 µg/mL
Minimum inhibitory Triclosan concentration ([5]; laboratory strain NCTC7864): 0.8 µg/mL
Minimum inhibitory Triclosan concentration ([5]; laboratory strain NCTC10712): 1.1 µg/mL
Minimum inhibitory Triclosan concentration [6]: 5.0 µg/mL
Minimum inhibitory Triclosan concentration [7]: 11.0 µg/mL
Minimum inhibitory Triclosan concentration [8]: 2.0 µg/mL
Minimum inhibitory Triclosan concentration [9]: 2.0 µg/mL
Minimum inhibitory Triclosan concentration [10]: 5.0 µg/mL
Minimum inhibitory Triclosan concentration [11]: 2.5 µg/mL
Minimum inhibitory Triclosan concentration ([12]; laboratory strain 581): 2.5 µg/mL
Minimum inhibitory Triclosan concentration ([12]; laboratory strain NCTC9336): 0.4 µg/mL
Minimum inhibitory Triclosan concentration ([13]; Fresh isolate from human plaque, Colgate-Palmolive data, strain 1446): 0.8 µg/mL
Minimum inhibitory Triclosan concentration ([13]; Oral Bacteria, laboratory strain NCTC10562): 1.2 µg/mL
Minimum inhibitory Triclosan concentration ([14]; Fresh isolate from human plaque, Colgate-Palmolive data, strain 1167): 6.2 µg/mL
Minimum inhibitory Triclosan concentration ([14]; Fresh isolate from human plaque, Colgate-Palmolive data, strain 1459): 2.3 µg/mL
Minimum inhibitory Triclosan concentration ([14]; Oral Bacteria, laboratory strain NCTC): 5.4 µg/mL
Minimum inhibitory Triclosan concentration [15]: <0.4 µg/mL
Minimum inhibitory Triclosan concentration [16]: <0.6 µg/mL
Minimum inhibitory Triclosan concentration [17]: 33.0 µg/mL
Minimum inhibitory Triclosan concentration ([18]; strain 1426): <0.3 µg/mL
Minimum inhibitory Triclosan concentration ([18]; strain 1483): <0.3 µg/mL
Minimum inhibitory Triclosan concentration ([19]; strain 287): 0.8 µg/mL
Minimum inhibitory Triclosan concentration ([19]; strain 290): 2.3 µg/mL
Minimum inhibitory Triclosan concentration ([19]; strain 310): 0.8 µg/mL
Minimum inhibitory Triclosan concentration ([20]; strain 580): 0.6 µg/mL
Minimum inhibitory Triclosan concentration ([20]; strain 1198): 2.3 µg/mL
Minimum inhibitory Triclosan concentration [21]: 3.1 µg/mL
Minimum inhibitory Triclosan concentration [22]: 2.3 µg/mL
Minimum inhibitory Triclosan concentration ([23]; strain 1339): 2.3 µg/mL
Minimum inhibitory Triclosan concentration ([23]; strain 1391): 2.3 µg/mL
Minimum inhibitory Triclosan concentration ([24]; strain 1384): 2.3 µg/mL
Minimum inhibitory Triclosan concentration ([24]; strain 1387): 2.3 µg/mL
Minimum inhibitory Triclosan concentration [25]: 0.8 µg/mL
Minimum inhibitory Triclosan concentration ([26]; strain ATCC9144): 0.05 µg/mL
Minimum inhibitory Triclosan concentration ([26]; strain ATCC29213): <0.125 µg/mL
Minimum inhibitory Triclosan concentration ([26]; strain NCTC11150): 0.02 µg/mL
Minimum inhibitory Triclosan concentration ([26]; strain NCTC12232): 0.01 µg/mL
Minimum inhibitory Triclosan concentration [27]: <0.125 µg/mL
Minimum inhibitory Triclosan concentration [28]: 0.03 µg/mL
Minimum inhibitory Triclosan concentration [29]: 1.0 µg/mL
Minimum inhibitory Triclosan concentration [30]: 0.1 µg/mL
Minimum inhibitory Triclosan concentration ([31]; strain ATCC9661): 0.3 µg/mL
Minimum inhibitory Triclosan concentration ([31]; strain ATCC43888): 0.1 µg/mL
Minimum inhibitory Triclosan concentration ([31]; strain NCTC8196): 0.02 µg/mL
Minimum inhibitory Triclosan concentration ([31]; strain NCTC11186): 0.5 µg/mL
Minimum inhibitory Triclosan concentration [32]: 3.0 µg/mL
Minimum inhibitory Triclosan concentration ([33]; strain ATCC12055): >1000 µg/mL
Minimum inhibitory Triclosan concentration ([33]; strain NCTC8060): >1000 µg/mL
Minimum inhibitory Triclosan concentration [34]: 1.0 µg/mL
Minimum inhibitory Triclosan concentration [35]: 0.1 µg/mL
Minimum inhibitory Triclosan concentration ([36]; strain A): 10.0 µg/mL
Minimum inhibitory Triclosan concentration ([36]; strain ATCC10259): 3.0 µg/mL
solubility (sparingly soluble) (at 20 C°): 0.001 grams per liter
Triclosan water solubility (at 37 C. °): Triclosan water solubility approximately 30 ug/ml at 37 C. °
water solubility (at 50 C°): 40 µg/mL (≈ 138 µM)
Triclosan release in water [37]: 0.02 ppm
amount ingested without ill effect [38]: greater than 5000 mg/Kg
Streptococcus mutans formation and adhesion [39]: reduced Streptococcus mutans formation and adhesion
effectiveness against Staphylococcus aureus [40]: effectiveness
effectiveness against Staphylococcus epidermidis [41]: effectiveness
effectiveness against Escherichia coli [42]: effectiveness
leaching [43]: high leaching
